Non-standard residues stand in square brackets, D forms with d. Residues, ends and D or L forms follow the SMILES beside them. ξ: configuration not given here. ξBip(2'-Et-4'-OMe) = CCc1cc(OC)ccc1-c1ccc(CC(N)C(=O)O)cc1; ξNva(5-(3,5-Me2-Ph)) = Cc1cc(C)cc(CCCC(N)C(=O)O)c1; ξNva(5-(3-Cl-Ph)) = NC(CCCc1cccc(Cl)c1)C(=O)O; Aib = CC(C)(N)C(=O)O
Columns and labels:
[1] = system: C57BL/6J mice (mild hyperglycemic); assay: In vivo glucose reduction, acute single dose 120-min time-course, i.p. route; parameters: species or system mouse; unit not given here; conditions: male C57BL/6J mice
[2] = system: C57BL/6J mice (mild hyperglycemic); assay: In vivo glucose reduction, acute single dose 120-min time-course, oral route; parameters: species or system mouse; unit not given here; conditions: male C57BL/6J mice, 2 μM/kg oral
Protocol: Acute single dose 120-min time-course experiments were carried out in male C57BL/6J or db/db mice, age 8-12 weeks, bred in-house. Animals were housed in groups of 6 animals per cage, for a week, in order to habituate them to vivarium conditions (25±4° C., 60-65% relative humidity, 12:12 h light:dark cycle, with lights on at 7.30 am). All the animal experiments were carried out according to the internationally valid guidelines following approval by the ‘Zydus Research Center animal ethical committee’.
Two days prior to the study, the animals were randomised and divided into 5 groups (n=6), based upon their fed glucose levels. On the day of experiment, food was withdrawn from all the cages, water was given ad-libitum and were kept for overnight fasting. Vehicle (normal saline)/test/standard compounds were administered intraperitoneally (i.p.) or orally, on a body weight basis. Soon after the 0 min. blood collection from each animal, the subsequent blood collections were done at 30, 60 and 120 or up to 240 min., via retro-orbital route, under light ether anesthesia (Chen, D., et al., Diabetes Obesity Metabolism, 2005, 7, 307. Kim, J. G. et al., Diabetes, 2003, 52, 751).
Blood samples were centrifuged and the separated serum was immediately subjected for the glucose estimation. Serum for insulin estimation was stored at −70° C. until used for the insulin estimation. The glucose estimation was carried out with DPEC-GOD/POD method (Ranbaxy Fine Chemicals Limited, Diagnostic division, India), using Spectramax-190, in 96-microwell plate reader (Molecular devices Corporation, Sunnyvale, Calif.). […] The AUC and BCAUC obtained from graphs were analyzed for one way ANOVA, followed by Dunnett's post test, using Graph Pad prism software. Furthermore, the insulin estimation was carried out using rat/mouse insulin ELISA kit (Linco research, Missouri USA). Changes in the blood glucose levels, at 0, 30, 60 and 120 min, with selected peptidomimetics are shown in Table 7 (via ip route of administration) and Table 8 (via oral route of administration) respectively.

`CCc1cc(OC)ccc1-c1ccc(CC(CNC(CCCc2ccccc2)C(N)=O)NC(=O)[C@H](CC(=O)O)NC(=O)[C@H](CO)NC(=O)[C@@H](NC(=O)C(C)(Cc2ccccc2F)NC(=O)[C@@H](NC(=O)CNC(=O)C(CCC#N)NC(=O)C(C)(C)NC(=O)[C@@H](N)Cc2c[nH]cn2)[C@H](C)O)[C@H](C)O)cc1` (single isomer, unassigned) [Seq. ID. 190] gave a blood glucose levels ([1]; 10 nM/kg i.p., 0 min) of 182 ± 2.1, a blood glucose levels ([1]; 10 nM/kg i.p., 30 min) of 121 ± 2.9 and a blood glucose levels ([1]; 10 nM/kg i.p., 60 min) of 130 ± 3.1. It also gave a blood glucose levels ([1]; 10 nM/kg i.p., 120 min) of 138 ± 2.4, a blood glucose levels ([2]; 0 min) of 183 ± 2.1 and a blood glucose levels ([2]; 30 min) of 118 ± 3.4. It also gave a blood glucose levels ([2]; 60 min) of 113 ± 4.6 and a blood glucose levels ([2]; 120 min) of 111 ± 2.8.

In the case of `CCc1cc(OC)ccc1-c1ccc(CC(CNC(CCCc2ccccc2)C(N)=O)NC[C@H](CC(=O)O)NC(=O)[C@H](CO)NC(=O)[C@@H](NC(=O)C(C)(Cc2ccccc2F)NC(=O)[C@@H](NC(=O)CNC(=O)C(CCC#N)NC(=O)C(C)(C)NC(=O)[C@@H](N)Cc2c[nH]cn2)[C@H](C)O)[C@H](C)O)cc1` (single isomer, unassigned) [Seq. ID. 202], the blood glucose levels ([1]; 50 nM/kg i.p., 0 min) is reported as 183 ± 5.1, the blood glucose levels ([1]; 50 nM/kg i.p., 30 min) is reported as 122 ± 3.1 and the blood glucose levels ([1]; 50 nM/kg i.p., 60 min) is reported as 130 ± 2.3. It also gave a blood glucose levels ([1]; 50 nM/kg i.p., 120 min) of 148 ± 2.2, a blood glucose levels ([2]; 0 min) of 184 ± 2.5 and a blood glucose levels ([2]; 30 min) of 115 ± 3.6. For the same molecule, the blood glucose levels ([2]; 60 min) was 113 ± 4.2 and the blood glucose levels ([2]; 120 min) was 110 ± 2.4.

`CCc1cc(OC)ccc1-c1ccc(CC(NC(=O)[C@H](CC(=O)O)NC(=O)[C@H](CO)NC(=O)[C@@H](NC(=O)C(C)(Cc2ccccc2F)NC(=O)[C@@H](NC(=O)CNC(=O)C(CCC#N)NC(=O)C(C)(C)NC(=O)[C@H](Cc2c[nH]cn2)NC(C)=O)[C@@H](C)O)[C@@H](C)O)C(=O)NC(CCCc2ccccc2F)C(N)=O)cc1` (single isomer, unassigned) [Seq. ID. 207] showed a blood glucose levels ([1]; 50 nM/kg i.p., 0 min) of 184 ± 5.0, a blood glucose levels ([1]; 50 nM/kg i.p., 30 min) of 122 ± 3.8 and a blood glucose levels ([1]; 50 nM/kg i.p., 60 min) of 128 ± 2.1. The blood glucose levels ([1]; 50 nM/kg i.p., 120 min) was 149 ± 2.3, the blood glucose levels ([2]; 0 min) was 183 ± 2.4 and the blood glucose levels ([2]; 30 min) was 116 ± 3.1. For the same molecule, the blood glucose levels ([2]; 60 min) was 112 ± 4.8 and the blood glucose levels ([2]; 120 min) was 110 ± 2.5.

`CCc1cc(OC)ccc1-c1ccc(CC(NC(=O)[C@H](CC(=O)O)NC(=O)[C@H](CO)NC(=O)[C@@H](NC(=O)C(C)(Cc2ccccc2F)NC(=O)[C@@H](NC(=O)CNC(=O)[C@H](CC(C(F)(F)F)C(F)(F)F)NC(=O)C(C)(C)NC(=O)[C@@H](N)Cc2c[nH]cn2)[C@@H](C)O)[C@H](C)O)C(=O)NC(CCCc2ccccc2)C(N)=O)cc1` (single isomer, unassigned) [Seq. ID. 225] gave a blood glucose levels ([1]; 10 nM/kg i.p., 0 min) of 184 ± 5.0, a blood glucose levels ([1]; 10 nM/kg i.p., 30 min) of 122 ± 3.8 and a blood glucose levels ([1]; 10 nM/kg i.p., 60 min) of 128 ± 2.1. The blood glucose levels ([1]; 10 nM/kg i.p., 120 min) was 149 ± 2.3, the blood glucose levels ([2]; 0 min) was 183 ± 2.3 and the blood glucose levels ([2]; 30 min) was 119 ± 3.0. It also gave a blood glucose levels ([2]; 60 min) of 112 ± 4.3 and a blood glucose levels ([2]; 120 min) of 109 ± 2.6.

`CCc1cc(OC)ccc1-c1ccc(CC(NC(=O)[C@H](CC(=O)O)NC(=O)[C@H](CO)NC(=O)[C@@H](NC(=O)[C@H](Cc2ccccc2)NC(=O)[C@@H](NC(=O)CNC(=O)[C@H](CCC(N)=O)NC(=O)[C@H](C)NC(=O)[C@@H](N)Cc2c[nH]cn2)[C@@H](C)O)[C@@H](C)O)C(=O)NC(CCCc2cccc(Cl)c2)C(N)=O)cc1` (stereo partly drawn) [Seq. ID. 15] (H-HAQGTFTSD[ξBip(2'-Et-4'-OMe)][ξNva(5-(3-Cl-Ph))]-NH2) showed a blood glucose levels ([1]; 30 nM/kg i.p., 0 min) of 180 ± 3.2, a blood glucose levels ([1]; 30 nM/kg i.p., 30 min) of 119 ± 3.2 and a blood glucose levels ([1]; 30 nM/kg i.p., 60 min) of 117 ± 3.1. It also gave a blood glucose levels ([1]; 30 nM/kg i.p., 120 min) of 118 ± 1.8, a blood glucose levels ([2]; 0 min) of 183 ± 2.4 and a blood glucose levels ([2]; 30 min) of 116 ± 3.1. For the same molecule, the blood glucose levels ([2]; 60 min) was 112 ± 4.8 and the blood glucose levels ([2]; 120 min) was 110 ± 2.5.

In the case of `CCc1cc(OC)ccc1-c1ccc(CC(NC(=O)[C@H](CC(=O)O)NC(=O)[C@H](CO)NC(=O)[C@@H](NC(=O)[C@H](Cc2ccccc2)NC(=O)[C@@H](NC(=O)CNC(=O)[C@H](CCC(N)=O)NC(=O)C(C)(C)NC(=O)[C@@H](N)Cc2c[nH]cn2)[C@@H](C)O)[C@@H](C)O)C(=O)NC(CCCc2cc(C)cc(C)c2)C(N)=O)cc1` (stereo partly drawn) [Seq. ID. 18] (H-H[Aib]QGTFTSD[ξBip(2'-Et-4'-OMe)][ξNva(5-(3,5-Me2-Ph))]-NH2), the blood glucose levels ([1]; 30 nM/kg i.p., 0 min) is reported as 183 ± 3.6, the blood glucose levels ([1]; 30 nM/kg i.p., 30 min) is reported as 118 ± 3.3 and the blood glucose levels ([1]; 30 nM/kg i.p., 60 min) is reported as 116 ± 3.2. It also gave a blood glucose levels ([1]; 30 nM/kg i.p., 120 min) of 117 ± 1.9, a blood glucose levels ([2]; 0 min) of 185 ± 2.3 and a blood glucose levels ([2]; 30 min) of 115 ± 3.8. The blood glucose levels ([2]; 60 min) was 113 ± 4.9 and the blood glucose levels ([2]; 120 min) was 109 ± 2.2.

Source: US8883963B2 (Cadila Healthcare Limited, priority 2007, dated 2014)
